According to patent US10226452B2, “Benzoxazolone derivatives as acid ceramidase inhibitors, and their use as medicaments” (FONDAZIONE ISTITUTO ITALIANO DI TECNOLOGIA, priority 2014, dated 2019):

Columns and labels:
cathepsin D (h) = cathepsin D (h) (Homo sapiens (Human), UniProt P07339); assay: Cerep enzyme inhibition screen: cathepsin D; assay type: biochemical; conditions: mean of two determinations, read-out: Inhibitory activity (% Inh. at 10 μM), mean
From the text: Compound of Example 25 falling in both Formula (I) and (Ia) was selected to be tested for off-target effects on a set of enzymes that include proteases (aspartic, cysteine, and serine), cyclooxygenases as well as lipoxygenases and group IV phospholipase (sPLA2) (Table 3). [table]

PLC = assay: Cerep enzyme inhibition screen: PLC; assay type: biochemical; conditions: mean of two determinations
From the text: Compound of Example 25 falling in both Formula (I) and (Ia) was selected to be tested for off-target effects on a set of enzymes that include proteases (aspartic, cysteine, and serine), cyclooxygenases as well as lipoxygenases and group IV phospholipase (sPLA2) (Table 3).

A375 cells = assay: ceramide levels in A375 human melanoma cells; assay type: cell-based; conditions: 25 μM
Experimental: Specifically, FIG. 1 evidences the effects of compound of Example 7 or vehicle (0.1% DMSO in DMEM) on AC activity and ceramide levels in A375 (left panel) or MeWo (right panel) human melanoma cell lines. (A-B) Intact cells were treated with compound of Example 7 (25 μM) or vehicle and AC activity was measured 30 minutes or 3 hours later in cell lysates. (B) Intact cells were exposed to compound of Example 7 (25 μM) for 2 hours or 24 hours and medium chain ceramides (C-D), long chain ceramides (E-F) and dihydroceramides (G-H) were quantified. Results are expressed as mean±s.e.m. (n=3). *p<0.05, **p<0.01, ***p<0.001 vs vehicle, two-way ANOVA followed by Dunnet.
Lipids were extracted from mouse tissue lysate with a chloroform/MeOH mixture (2:1 v/v, 3 mL) containing internal standards. The organic phase was collected, dried under nitrogen, and dissolved in chloroform/MeOH (1:3 v/v) for LC-MS analyses. Ceramides, sphingosine and sphinganine were analyzed by LC-MS/MS, using a Waters Acquity UPLC coupled with a Waters Xevo TQMS and interfaced with ESI. Separation was done on a Waters Acquity BEH C18 1.7 μm column (2.1×50 mm) at 60° C. A step gradient of 0.1% formic acid in acetonitrile/water (20:80 v/v) as solvent A and 0.1 formic acid in acetonitrile/isopropyl alcohol (20:80 v/v) as solvent B was applied at a flow rate of 0.4 mL/min. Detection was in the positive ionization mode. Capillary voltage was 3.5 kV and cone voltage was 25 V. The source temperature and desolvation temperatures were set at 120° C. and 600° C. respectively. […]
Tissue-derived ceramides were identified by comparison of their LC retention times and MS^2 fragmentation patterns with those of authentic standards (Avanti Polar Lipids). Extracted ion chromatograms were used to quantify myristoyl ceramide (C14:0, m/z 510.5>492.5>264.3), palmitoyl ceramide (C16:0, m/z 538.5>520.3>264.3), stearoyl ceramide (C18:0 m/z 566.5>548.3>264.3), lignoceroyl ceramide (C24:0 m/z 650.5>632.3>264.3), nervonoyl ceramide (C24:1 m/z 648.5>630.3>264.3) and using lauroyl ceramide standard (m/z 482.5>464.5>264.3). […]

[1] = target: human (hAC) acid ceramidase (Homo sapiens (Human), UniProt Q13510); assay: fluorescent-based in vitro assay on human acid ceramidase; assay type: biochemical; conditions: hAC-enriched lysosomal lysate from HEK293 cells; fluorogenic probe 5 μM; pH 4.5
human (hAC) acid ceramidase, sequence (Q13510 22-142): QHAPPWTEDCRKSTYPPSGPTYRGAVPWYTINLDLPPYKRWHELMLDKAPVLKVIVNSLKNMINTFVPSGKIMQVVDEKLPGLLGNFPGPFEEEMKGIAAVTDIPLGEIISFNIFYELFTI
human (hAC) acid ceramidase, sequence (Q13510 143-395): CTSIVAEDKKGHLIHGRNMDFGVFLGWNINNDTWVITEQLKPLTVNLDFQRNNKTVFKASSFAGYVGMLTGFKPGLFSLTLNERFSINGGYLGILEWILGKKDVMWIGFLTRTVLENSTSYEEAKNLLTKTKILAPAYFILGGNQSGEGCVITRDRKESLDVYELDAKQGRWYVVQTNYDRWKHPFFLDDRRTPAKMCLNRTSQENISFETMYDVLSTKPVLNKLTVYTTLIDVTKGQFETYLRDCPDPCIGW
From the text: To evaluate the potency of the compounds towards acid ceramidase, a fluorescence-based in vitro assay previously described in literature (Bedia C et al., ChemBioChem, 2007, 8, 642-648) was implemented and optimized. This assay is based on a “fluorogenic probe” containing a coumarin group and a sphingoid base moiety (see figure below), which is not fluorescent in itself, but upon enzymatic cleavage by acid ceramidase followed by a chemical transformation liberates the fluorescent molecule umbelliferone (7-hydroxychromen-2-one). By quantifying the generation of umbelliferone using a fluorescence plate-reader, the level of enzymatic activity can be measured, whereby IC50 values of compounds that inhibit this activity can be generated.
Lysosomal lysate, enriched with acid ceramidase, was prepared from a cell line stably expressing human acid ceramidase. In the assay, the fluorogenic probe (or substrate) serves as a ceramide-analogue, which is recognized and hydrolyzed at the amide bond by acid ceramidase from the enriched lysate to yield the fatty acid and coumarinic aminodiol. By treating the solution with sodium periodate (NaIO4), the coumarinic aminodiol is subsequently oxidized into an aldehyde intermediate, which undergoes a β-elimination reaction to release the strongly fluorescent umbelliferone.
A lysosomal human acid ceramidase protein preparation was obtained from HEK293 cells stably expressing acid ceramidase suspended in 20 mM Tris HCl (pH 7.5) with 0.32 M sucrose. The cell solution was sonicated and centrifuged at 800×g for 15 min at 4° C. Supernatants were then centrifuged at 12,000×g for 30 min at 4° C. Pellets were re-suspended in PBS pH 7.4 and subjected to two freeze-thaw cycles at −80° C. The suspension was finally centrifuged at 105,000×g for 1 hour at 4° C. and protein concentration was measured in the supernatant with bicinchinonic-acid based protein assay. This human acid ceramidase-enriched preparation allowed us to further optimize the enzymatic assay and to use smaller amounts of lysate (2 μg/well) and substrate (5 μM).
The assay was performed in Optiplate 96-wells black plates, with each reaction well containing a mixture of 25 mM sodium acetate buffer pH 4.5 and a fixed amount of protein (2 μg) in a volume of 85 μL. After 30 mins of pre-incubation with test compounds (diluted 20× from DMSO stock solutions at different concentrations), the fluorogenic probe was added (diluted 20× from EtOH stock solution, final concentration 5 μM). After incubation for 3 hours at 37° C., the reactions were stopped with 50 μL of methanol and 100 μL of a 2.5 mg/mL NalO4 fresh solution in 100 mM Glycine/NaOH pH 10.6. The plate was incubated at 37° C. for 2 hours in the dark and fluorescence intensities were measured at excitation/emission wavelengths of 360/446 nm. Negative control samples consisted of the same incubation mixture in the absence of protein extracts. The IC50 values or percent of inhibition, at the indicated concentration, of selected compounds described in the invention are reported in Table 2.

cathepsin D (h), sequence (P07339 65-412): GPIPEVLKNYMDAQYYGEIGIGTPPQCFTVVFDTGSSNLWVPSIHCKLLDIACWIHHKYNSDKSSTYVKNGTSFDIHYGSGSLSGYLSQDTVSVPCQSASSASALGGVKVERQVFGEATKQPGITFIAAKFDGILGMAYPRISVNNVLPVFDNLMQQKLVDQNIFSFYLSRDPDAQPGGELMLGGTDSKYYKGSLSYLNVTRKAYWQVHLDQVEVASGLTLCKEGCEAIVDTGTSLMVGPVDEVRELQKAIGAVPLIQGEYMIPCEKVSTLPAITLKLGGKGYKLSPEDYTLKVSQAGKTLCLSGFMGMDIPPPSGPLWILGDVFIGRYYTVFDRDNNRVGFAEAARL

Structure (SMILES)	inhibition at 10 µM (cathepsin D (h))	Inhibitory activity (% Inh. at 10 μM), mean (PLC)	duration of effects on ceramide levels (A375 cells; A375 cells (low AC expression))	di-hydro ceramide species levels (A375 cells; A375 cells)	ceramide species levels (cer(d18:1/14:0), cer(d18:1/16:0), cer(d18:1/18:0), cer(d18:1/24:1)) (A375 cells; A375 cells, LC/MS)	IC50 [1]
O=C(NCCCCc1ccccc1)n1c(=O)oc2cc(-c3ccc(F)cc3)ccc21 [Example 25, 6-(4-Fluorophenyl)-2-oxo-N-(4-phenylbutyl)-1,3-benzoxazole-3-carboxamide]	67%	−19.7%				
O=C(NCCCCc1ccccc1)n1c(=O)oc2cc(Br)ccc21 [Example 7, 6-Bromo-2-oxo-N-(4-phenylbutyl)-1,3-benzoxazole-3-carboxamide]			lasted up to 24 hours	significant increase in all di-hydro ceramide species analyzed	intracellular accumulation of various ceramide species	33 ± 9 nM
